Measured values as given in patent publication US10066025B2, “Compositions and methods for detecting, treating and preventing diseases and disorders” (YALE UNIVERSITY, priority 2012, dated 2018).

Columns and labels:
[1] = tested on: renal ischemia/reperfusion (IR) injury; assay: Murine model of renal ischemia/reperfusion (IR) injury, plasma creatinine; format: in vivo, mice; conditions: for renal protection (plasma creatinine): 5 mg/kg i.p., 30 min. renal IR; for protection against ischemic AKI (renal injury, plasma creatinine at 24 hr): renalase peptides 100 μg subcutaneous 10 to 30 min prior to 30 min renal ischemia; for protection against ischemic AKI (renal injury, plasma creatinine at 24 hr) / effect of ERK or PI3K/AKT inhibitor pretreatment on protective action of RP-H220: WT mice; for effect of ERK or PI3K/AKT inhibitor pretreatment on protective action of RP-H220: 30 min renal IR; for severity of AKI, inhibitor alone without the peptides: ischemic WT mice
Protocol: Adult male renalase deficient (KO) mice (Wu et al., 2011, Kidney Int 79: 853-860) on a C57BL/6 background were subjected to renal ischemia/reperfusion (IR) as described (Kim et al., 2009, Kidney Int 75: 809-823; Kim et al., 2010, Am J Physiol Renal Physiol 299(2):F347-58). Renalase KO or wild type (WT) mice (C57BL/6 from Harlan Labs, Indianapolis, Ind.) were subjected to sham-operation or to 20 min. (moderate) or 30 min. (severe) renal ischemia and 24 hr. reperfusion. To test the renal protective effects of recombinant human renalase, mice were pretreated with saline (vehicle) or with recombinant renalase (0.5, 1.5 or 4.5 mg/kg, s.c.) 10 min. prior to 30 min. renal ischemia. It was also tested whether renalase treatment after completion of renal ischemia also provides renal protection. Separate cohorts of mice were treated with saline or with renalase (1.5 mg/kg, s.c.) 30 min. or 60 min. after reperfusion of the ischemic kidney. To test whether blocking alpha receptors would mimic the renal protective effects of human recombinant renalase administration, phentolamine (an alpha receptor antagonist, 5 mg/kg, i.p.) was given in some mice 15 min. before renal ischemia.
Plasma creatinine was measured as described with an enzymatic creatinine reagent kit according to the manufacturer's instructions (Thermo Fisher Scientific, Waltham, Mass.) (Slot, 1965, J Clin Lab Invest 17: 381-387).
After animal care and use committee approval, adult male C57BL/6 (Harlan Labs, Indianapolis, Ind.) were subjected to sham-operation or to 30 minutes of renal ischemia followed by 24 hrs of reperfusion as previously described (Lee et al., 2004, American journal of physiology. Renal physiology 286:F298-306). To test the renal protective effects of renalase peptides (RP-220, RP-H220 and RP-224), mice were pretreated with saline (vehicle) or with renalase peptides (100 μg subcutaneous) 10 to 30 minutes prior to renal ischemia.
Blood was collected from mice anesthetized with isoflurane via cardiac puncture into a heparinized syringe and was subsequently centrifuged to separate plasma. Samples were submitted to the Yale O'Brien Kidney Center for measurement of BUN and creatinine. Plasma creatinine was measured either by an enzymatic creatinine reagent kit according to the manufacturer's instructions (Thermo Fisher Scientific, Waltham, Mass.) or by HPLC. These methods of creatinine measurement largely eliminate the interferences from mouse plasma chromagens, known to occur with the Jaffe method.

systemic blood pressure = assay: Blood pressure and heart rate in anesthetized mice; format: in vivo; conditions: for effect on systemic blood pressure: IV and subcutaneous administration, mice
Protocol: As in 14A, except that RP-H220 is injected; no significant changes in blood pressure (FIG. 14B). Effect of a single intravenous injection of RP-220 (squares) and RP-H220 (diamonds) on heart rate in wild type mice (FIG. 14C).
FIG. 21 depicts the results of experiments examining the effect of RP-220 injection on blood pressure. A single subcutaneous injection of RP-220 (n=3) or buffer (n=2) in anesthetized wild type mice; BP pressure is recorded continuously; RP-220 is given at time 0; each data point represents the mean pressure; the standard error of the means are shown.
Systolic and diastolic pressure and heart rate were measured in anesthetized mice as previously described (Desir et al., 2012, J Am Heart Assoc. 1:e002634).

HK-2 cells [2] = assay: HK-2 cell necrosis induced with 2 mM H2O2 (LDH release); format: cell-based, human
Protocol: (§1) HK2 cells (human proximal tubular line) obtained from ATTC (Manassas, Va., USA) were cultured in DMEM/F12 supplemented with glutamine, 10% FBS and antibiotics, and were maintained at 37° C. in 5% CO2. Cells were exposed to cisplatin (20 μM) in the presence or absence of renalase for 24 hrs, and cell viability was assessed by the WST1 method (Roche Applied Science, Germany). Cells were then harvested in RIPA buffer (20 mM Tris-HCl pH 7.5, 150 mM NaCl, 1 mM Na2EDTA, 1 mM EGTA, 1% NP-40, 1% sodium deoxycholate, 2.5 mM sodium pyrophosphate, 1 mM β-glycerophosphate, 1 mM Na3VO4, 1 μg/ml leupeptin) supplemented with a protease and phosphatase inhibitor cocktail (Roche Applied Science, Germany). Proteins were separated by SDS-PAGE and Western blotting was carried out using the following antibodies: anti-renalase monoclonal (Desir et al., 2012, J Am Heart Assoc. 1:e002634; (Lee et al., 2013, J Am Soc Nephrol 24:445-455); anti caspase 3 (Cell Signaling Technology, MA, USA) and anti Bcl2 (Thermo Scientific, USA). Necrotic injury in HK-2 cells (ATCC, Manassas, Va.) was induced with exposure to 2 mM H2O2 for 2-8 hr and lactate dehydrogenase (LDH) released into cell culture media was measured as described using a commercial LDH assay kit (Promega, Madison, Wis.) (Lee and Emala, 2002, American journal of physiology. Renal physiology 282:F844-852).

HK-2 cells [3] = assay: HK-2 cell cisplatin toxicity (WST-1 viability, western blot); format: cell-based, human; conditions: 20 μM cisplatin, 24 hrs
Protocol: Cultured HK-2 cells were incubated with 20 μM cisplatin for 24 hours with and without recombinant renalase. Renalase expression was examined by Western blot and cell viability (mitochondrial integrity) was determined spectrophotometrically using WST-1, a tetrazolium salt that is cleaved, by mitochondrial dehydrogenases of metabolically active and viable cells, to formazan (420-480 nm) (Boehringer Mannheim, Germany).
as §1

[4] = tested on: PI3K/AKT and MAPK pathways; assay: AKT and MAPK signaling and Bcl-2 expression by western blot; format: cell-based, human; conditions: HK-2 cells in culture
Protocol: FIG. 12, comprising FIGS. 12A through 12E, is a set of images and graphs showing renalase upregulates Bcl-2, activates PI3K/AKT, ERK, p38, and inhibits JNK. Western blot analysis; P− indicates phosphorylated, activated proteins; signals normalized to GAPDH loading control, then changes in protein phosphorylation (increase=activation, decrease=inhibition) from time 0 are calculated. FIG. 12A: HK-2 and HUVEC cells incubated with renalase for 24 hrs; FIG. 12B: Western blot of time course of AKT and MAPK signaling by renalase, HK-2 cells incubated with renalase for indicated time; changes over baseline in 4c-d are significant (p<0.05); FIG. 12C: Activation of AKT(T308), AKT(5473) and ERK; FIG. 12D: Inhibition of JNK; FIG. 12E: Marked and sustained (60 min) upregulation of p38 by renalase in the presence of cisplatin, western blot for time course, REN=renalase, CP=cisplatin.
MAPK signaling by renalase and renalase peptides. Western blot analysis; ERK: Extracellular signal-Regulated Kinase 1 and 2; JNK: c-Jun N-terminal Kinases; AKT: protein kinase B; p-indicates phosphorylated, activated proteins; representative blot, n=3 (FIG. 20A). Renalase activates AKT (FIG. 20B). Western blot analysis; P− indicates phosphorylated, activated proteins Representative blot, n=3 (FIG. 20B, left panel). Signals normalized to GAPDH loading control; n=3, change over baseline statistically significant (P<0.05) from 1-60 min for ERK, p38 and AKT (T308), and at 30 min only for AKT (S473) (FIG. 20B, right panel). ERK or AKT inhibition abrogates protective effect of RP-H220 (FIG. 20C). Plasma creatinine levels from mice subjected to sham-surgery or to renal ischemia and reperfusion (IR); Renalase WT mice were subjected to sham-surgery or to 30 min renal IR. For mice subjected to renal IR, RP-H220 or vehicle (saline) was injected 10 min prior to renal ischemia. Some animals were pretreated with either the ERK inhibitor PD98059 or the PI3K/AKT inhibitor wortmanin. (N=6-8 per group). *: P<0.05 vs. vehicle-treated mice subjected to sham-surgery; #: P<0.05 vs. vehicle-treated WT mice subjected to renal IR (FIG. 20C).

With `Cc1ccc(N(CC2=NCCN2)c2cccc(O)c2)cc1` [Phentolamine, reference compound] the “renal protection (plasma creatinine)” value ([1]; renalase KO mice) was “protected renalase KO mice” and the “renal protection (plasma creatinine)” value ([1]; renalase WT mice) was “produced significant renal protection”.
“RP 224: renalase peptide amino acid 224-233, SEQ ID NO: 2, CVSIDNKKRNI (listed as Homo sapiens)” was tested, and the “effect on systemic blood pressure” value (systemic blood pressure) was “no effect on BP”, the “effect on blood pressure and heart rate” value (systemic blood pressure; anesthetized WT mice) was “no effect on blood pressure and heart rate” and the “protection against ischemic AKI (renal injury, plasma creatinine at 24 hr)” value (“protection against ischemic AKI” for short) [1] was “not protective”. For the same compound, the “protection against ischemic AKI” value ([1]; listed as RP-224) was “ineffective”, the “protection against 2 mM H2O2 necrosis” value (HK-2 cells [2]; at 2 hrs) was “protective at 2 hrs” and the “protection against 2 mM H2O2 necrosis” value (HK-2 cells [2]; at 4 hrs) was “not at 4 hrs”. For the same compound, the “cell survival / protection against cisplatin toxicity” value (HK-2 cells [3]) was “improved HK-2 cell survival”.
For `COC[C@H]1OC(=O)c2coc3c2[C@@]1(C)C1=C(C3=O)[C@@H]2CCC(=O)[C@@]2(C)C[C@H]1OC(C)=O` [wortmanin, reference compound], the “effect of ERK or PI3K/AKT inhibitor pretreatment on protective action of RP-H220” value [1] was “A similar result was obtained” and the “severity of AKI, inhibitor alone without the peptides” value [1] was “had no effect on the severity of AKI”.
With `COc1cccc(-c2cc(=O)c3ccccc3o2)c1N` [PD98059, 2′-amino 3′ methoxyflavone, reference compound] the “effect of ERK or PI3K/AKT inhibitor pretreatment on protective action of RP-H220” value [1] was “completely abrogated” and the “severity of AKI, inhibitor alone without the peptides” value [1] was “had no effect on the severity of AKI”.
For “RP 220: renalase peptide, amino acids 220-239, SEQ ID NO: 3, CIRFVSIDNKKRNIESSEIG (listed as Homo sapiens)”, the “effect on systemic blood pressure” value (systemic blood pressure) was “marked and sustained effect on systemic blood pressure”, the “mean blood pressure decrease at 15 min” value (systemic blood pressure; WT mice, n=4, P=NS) was 11.9±0.9 mmHg and the “blood pressure after single intravenous injection” value (systemic blood pressure; anesthetized WT mice) was “profound fall in blood pressure”. For the same compound, the “blood pressure after subcutaneous administration” value (systemic blood pressure; anesthetized WT mice) was “decreased blood pressure”, the “delay in the onset of fall in blood pressure after subcutaneous administration” value (systemic blood pressure; anesthetized WT mice) was 30 to 60 min and the “duration of fall in blood pressure after intravenous injection” value (systemic blood pressure; anesthetized WT mice) was “up to two hours”. For the same compound, the heart rate increase (systemic blood pressure; anesthetized WT mice) was 5%, the “onset of fall in blood pressure after intravenous injection” value (systemic blood pressure; anesthetized WT mice) was at most 30 s and the “protection against ischemic AKI” value [1] was “less effective”. The “protection against ischemic AKI” value ([1]; listed as RP-220) was “reduced renal injury”, the “AKT and MAPK signaling (phosphorylation of ERK, p38, AKT)” value (from here on “AKT and MAPK signaling”) [4] was “rapid and transient phosphorylation” and the “necrosis induced with 2 mM H2O2” value (HK-2 cells [2]; at 2 and 4 hrs) was “significantly reduced necrosis”. The “cell survival / protection against cisplatin toxicity” value (HK-2 cells [3]) was “improved HK-2 cell survival”.
In the case of “RP 19: renalase peptide, SEQ ID NO: 8, LLRRQTSGPLYLAVWDKAED (listed as Homo sapiens)”, the “effect on systemic blood pressure” value (systemic blood pressure) is reported as “no effect on BP”.
In the case of “RP A220: renalase peptide, SEQ ID NO: 5, IRFVSIDNAAANIESSEIG (listed as Homo sapiens)”, the “effect on systemic blood pressure” value (systemic blood pressure) is reported as “no effect on BP”.
For “RP 128: renalase peptide, SEQ ID NO: 7, FRHRVTQINLRDDKWEVSKQ (listed as Homo sapiens)”, the “effect on systemic blood pressure” value (systemic blood pressure) was “no effect on BP”.
For “RP 220 scrambled: scrambled RP-220, SEQ ID NO: 6, CSKRIFKVISSIEDNNERG (listed as Homo sapiens) [reference compound]”, the “effect on systemic blood pressure” value (systemic blood pressure) was “no effect on BP”, the “effect on blood pressure and heart rate” value (systemic blood pressure; anesthetized WT mice) was “no effect on blood pressure and heart rate” and the “AKT and MAPK signaling” value ([4]; listed as RP-Scr220) was “did not activate the AKT and MAPK signaling”. The “AKT and MAPK signaling” value ([4]; listed as scrambled RP H220) was “not”.
